Values of other authors, collected in publication PMC10985535 (RSC Advances, 2024).

Tested on: CT-DNA

## CC[n+]1c(-c2ccccc2)c2cc(N)ccc2c2ccc(N)cc21.[Br-] [EtBr]
  Ksv of classical intercalator: 10^7 M^−1
